From patent publication US9718790B2, “Triazine derivative and pharmaceutical composition having an analgesic activity comprising the same” (SHIONOGI & CO., LTD., priority 2010, dated 2017) come the findings set out here.

The target of one experiment is human P2X3 receptor (Homo sapiens (Human), UniProt P56373). Put plainly: Evaluation of human P2X3 receptor inhibitory activity (Fluo-3 calcium fluorescence, FDSS 3000, ATP stimulation).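 Note: stimulus was 50 nM ATP with fluorescence followed for 3 min, and the response per well was peak post-ATP fluorescence divided by the reading at measurement start.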 In kind it is cell-based. Conditions: C6BU-1 cells stably expressing human P2X3 receptor.
human P2X3 receptor, sequence (P56373 whole entry): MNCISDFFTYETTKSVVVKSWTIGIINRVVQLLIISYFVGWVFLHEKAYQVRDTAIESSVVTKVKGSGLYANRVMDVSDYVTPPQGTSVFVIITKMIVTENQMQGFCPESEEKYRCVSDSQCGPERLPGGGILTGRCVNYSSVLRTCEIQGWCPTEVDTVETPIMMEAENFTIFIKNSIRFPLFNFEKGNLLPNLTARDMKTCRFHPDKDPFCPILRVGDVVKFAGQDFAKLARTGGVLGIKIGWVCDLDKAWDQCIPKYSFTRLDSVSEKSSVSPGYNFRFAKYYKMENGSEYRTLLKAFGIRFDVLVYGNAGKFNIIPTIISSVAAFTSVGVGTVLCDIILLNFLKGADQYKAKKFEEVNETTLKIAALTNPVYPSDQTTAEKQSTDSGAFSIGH
With `CCCOc1ccc(/N=c2\[nH]c(=O)n(C[C@H](C)C(=O)OC)c(=O)n2Cc2ccc(Cl)cc2)cc1C` [Compound I-0707], the 50% inhibitory concentration (IC50) (in general, the midpoint of a concentration-inhibition curve) was 21 nM. On the same count and under the same terms, to `CC(C)Oc1ccc(/N=c2\[nH]c(=O)n(CCC(=O)Nc3ccc(OC(C)C)c(Cl)c3)c(=O)n2CC2CCC3(CC2)CC3)cc1Cl` [Compound I-1450] belongs 448 nM; to `CCOC(=O)CCCn1c(=O)[nH]/c(=N\c2ccc(Oc3ccnc(C)c3)cc2)n(Cc2ccc(C)cc2)c1=O` [Compound I-1397], 3 nM. Regarding `Cc1ccc(Cn2c(=O)n([C@H](C)[C@H](C)C(=O)O)c(=O)[nH]/c2=N\c2ccc(OC(C)C)c(C)c2)cc1` [Compound I-1339], the half-maximal inhibitory concentration (IC50) amounted to 30 nM. Still for that read-out and setting: to `CCn1c(=O)[nH]/c(=N\c2ccc(OCc3nnc(C)o3)cc2)n(Cc2ccc(Cl)cc2)c1=O` [Compound I-2199] belongs 515 nM; to `O=c1[nH]/c(=N\c2ccc(Oc3cc(CO)on3)cc2)n(Cc2ccc(Cl)cc2)c(=O)n1CCO` [Compound I-2118], 35 nM. The same measure, in the same setting: to `CCc1nc2ccc(/N=c3\[nH]c(=O)n(CCCCC(=O)O)c(=O)n3Cc3ccc(Cl)cc3)cc2s1` [Compound I-2185] belongs 15 nM; to `O=c1[nH]/c(=N\c2ccc(Oc3ccnc(CO)c3)cc2)n(Cc2ccc(Cl)cc2)c(=O)n1CCO` [Compound I-1986], 16 nM; to `COc1cc(/N=c2\[nH]c(=O)n(CCCO)c(=O)n2Cc2ccc(Cl)cc2)ccc1OC(C)C` [Compound I-2002], 8 nM. The same measure, in the same setting: the result for `COC(=O)[C@@H](C)[C@@H](C)n1c(=O)[nH]/c(=N\c2ccc(OC3CCC3)cc2)n(Cc2ccc(C)cc2)c1=O` [Compound I-1453] reads 13 nM; that for `COC(=O)c1ccc(Cn2c(=O)[nH]/c(=N\c3ccc(OC(C)C)c(C)c3)n(Cc3ccc(Cl)cc3)c2=O)o1` [Compound I-0700], 6 nM; that for `CCn1c(=O)[nH]/c(=N\c2ccc(Oc3ccc(C)c(C(=O)O)c3)cc2)n(Cc2ccc(Cl)cc2)c1=O` [Compound I-2017], 41 nM. As for `COC(=O)[C@@H](C)[C@@H](C)n1c(=O)[nH]/c(=N\c2ccc(OC(C)C)c(C)c2)n(Cc2ccc(C)cc2)c1=O` [Compound I-1312], the IC50 stood at 45 nM. Regarding `O=c1[nH]/c(=N\c2ccc(Oc3cncc(CO)c3)cc2)n(Cc2ccc(Cl)cc2)c(=O)n1CCO` [Compound I-2079], the IC50 was 38 nM.

With `CNC(=O)c1cc(Oc2ccc(/N=c3\[nH]c(=O)n(C)c(=O)n3Cc3ccc(C)cc3)cc2)ccn1` [Compound I-2012], the IC50 amounted to 9 nM. `Cc1ccc(Cn2c(=O)n(C)c(=O)[nH]/c2=N\c2ccc(Oc3cncc(C(=O)O)c3)cc2)cc1` [Compound I-2121]: the IC50 stood at 21 nM.

As to `Cc1[nH]c2ccc(/N=c3\[nH]c(=O)n(C[C@H]4COC(C)(C)O4)c(=O)n3Cc3ccc(Cl)cc3)cc2c1C` [Compound I-2039], the half-inhibitory concentration (IC50) stood at 9 nM. Same read-out and setting: to `Cc1ccc(Cn2c(=O)n(C[C@H](C)C(=O)O)c(=O)[nH]/c2=N\c2ccc3oc(C)cc3c2)cc1` [Compound I-0681] belongs 49 nM; to `CCn1c(=O)[nH]/c(=N\c2ccc(Oc3cncc(C(=O)OC)c3)cc2)n(Cc2ccc(C)cc2)c1=O` [Compound I-2076], 7 nM; to `Cc1cc(Oc2ccc(/N=c3\[nH]c(=O)n(CC(=O)NCCO)c(=O)n3Cc3ccc(Cl)cc3)cc2)ccn1` [Compound I-1928], 5 nM. `Cc1ccc(Cn2c(=O)n([C@@H](C)[C@@H](C)C(=O)O)c(=O)[nH]/c2=N\c2ccc(OCC(C)C)cc2)cc1` [Compound I-1387]: the IC50 amounted to 44 nM. On to `CCn1c(=O)[nH]/c(=N\c2ccc(Oc3nc(OC)nc(OC)n3)cc2)n(Cc2ccc(Cl)cc2)c1=O` [Compound I-2220], for which the half-inhibitory concentration (IC50) was found to be 37 nM.

In the case of `COC(=O)[C@@H](C)Cn1c(=O)[nH]/c(=N\c2ccc(NS(C)(=O)=O)cc2)n(Cc2ccc(C)cc2)c1=O` [Compound I-1416], the IC50 was 141 nM.

On to `C[C@@H](C(=O)O)[C@H](C)n1c(=O)[nH]/c(=N\c2ccc(N3CCCCC3)cc2)n(Cc2ccc(Cl)cc2)c1=O` [Compound I-1393], for which the IC50 is 35 nM. Same read-out and setting: to `Cc1ccc(Cn2c(=O)n(C[C@H](C)C(=O)O)c(=O)[nH]/c2=N\c2ccc(OC(C)C)c(C)c2)cc1` [Compound I-0680] belongs 26 nM. As for `Cc1cc(/N=c2\[nH]c(=O)n(Cc3cccn(CC(=O)O)c3=O)c(=O)n2Cc2ccc(Cl)cc2)ccc1OC(C)C` [Compound I-0760], the IC50 stood at 37 nM. Still for that read-out and setting: the result for `Cc1ccc(Cn2c(=O)n(C[C@H](C)C(=O)O)c(=O)[nH]/c2=N\c2ccc(CCC3CC3)cc2)cc1` [Compound I-1214] reads 70 nM.

Still in this experiment, the particulars now being: C6BU-1 cells stably expressing human P2X3 receptor, Fluo-3 fluorescence, FDSS 3000.
Consider `COC(=O)[C@H](C)Cn1c(=O)[nH]/c(=N\c2ccc(OCC3CC3)cc2)n(Cc2ccc(Cl)cc2)c1=O` [Compound I-1036], for which the concentration for half-maximal inhibition (IC50) is 5 nM. Consider `C[C@@H](C(=O)O)[C@H](C)n1c(=O)[nH]/c(=N\c2ccc3oc(-c4ccccc4)nc3c2)n(Cc2ccc(Cl)cc2)c1=O` [Compound I-1814], for which the half-maximal inhibitory concentration (IC50) was 299 nM. Still for that read-out and setting: the result for `CCn1c(=O)[nH]/c(=N\c2ccc(Oc3ccc(OC)nc3)cc2)n(Cc2ccc(Cl)cc2)c1=O` [Compound I-1847] reads 6 nM; that for `CCc1oc2ccc(/N=c3\[nH]c(=O)n(CCNC(C)=O)c(=O)n3Cc3ccc(Cl)cc3)cc2c1C` [Compound I-1566], 8 nM; that for `COC(=O)[C@@H](C)Cn1c(=O)[nH]/c(=N\c2ccc(OC(C)C)c(OC(C)C)c2)n(Cc2ccc(C)cc2)c1=O` [Compound I-1130], 133 nM. Same read-out and setting: to `Cc1ccc(Cn2c(=O)n(CCC(=O)O)c(=O)[nH]/c2=N\c2ccc(OCCC(C)C)cc2)cc1` [Compound I-1070] belongs 471 nM; to `CCn1c(=O)[nH]/c(=N\c2ccc(Oc3ccnc(O)c3)cc2)n(Cc2ccc(Cl)cc2)c1=O` [Compound I-1621], 4 nM. For the compound `Cc1ccc(Cn2c(=O)n(CC(C)(C)C(=O)O)c(=O)[nH]/c2=N\c2ccc3nc(C)sc3c2)cc1` [Compound I-1577], the IC50 was found to be 7 nM. Turning to `Cc1ccc(Cn2c(=O)n(C[C@H](C)C(=O)O)c(=O)[nH]/c2=N\c2ccc(OC(C)C)c(O)c2)cc1` [Compound I-1134], the concentration for half-maximal inhibition (IC50) was determined as 35 nM. In the case of `CCCOc1ccc(/N=c2\[nH]c(=O)n([C@@H](C)[C@@H](C)C(=O)O)c(=O)n2Cc2ccc(C)cc2)cc1` [Compound I-0929], the IC50 was 45 nM. On the same count and under the same terms, the result for `Cc1nc2ccc(/N=c3\[nH]c(=O)n(CC(=O)NCCO)c(=O)n3Cc3ccc(Cl)cc3)cc2s1` [Compound I-1661] reads 6 nM; that for `COC(=O)[C@@H](C)Cn1c(=O)[nH]/c(=N\c2cccc(C3=CCCC3)c2)n(Cc2ccc(C)cc2)c1=O` [Compound I-1084], 392 nM; that for `CCn1c(C)nc2cc(/N=c3\[nH]c(=O)n([C@@H](C)[C@@H](C)C(=O)O)c(=O)n3Cc3ccc(Cl)cc3)ccc21` [Compound I-1583], 332 nM. Same read-out and setting: to `CC(C)Oc1ccc(/N=c2\[nH]c(=O)n(CC3(CC(=O)O)CC3)c(=O)n2Cc2ccc(Cl)cc2)cc1Cl` [Compound I-0981] belongs 10 nM; to `CNC(=O)c1cc(Oc2ccc(/N=c3\[nH]c(=O)[nH]c(=O)n3Cc3ccc(Cl)cc3)cc2)ccn1` [Compound I-1846], 15 nM. The same measure, in the same setting: the result for `COC(=O)[C@@H](C)Cn1c(=O)[nH]/c(=N\c2ccc(Oc3ccccc3)cc2)n(Cc2ccc(Cl)cc2)c1=O` [Compound I-0989, (S)-1-(4-chlorobenzyl)-3-(2-methoxycarbonylpropyl)-6-(4-phenoxy-phenylimino)-1,3,5-triazinane-2,4-dion] reads 68 nM.

With `CCSc1ccc(/N=c2\[nH]c(=O)n(C[C@H](C)C(=O)OC)c(=O)n2Cc2ccc(Cl)cc2)cc1C` [Compound I-1040], the IC50 turned out to be 128 nM. As to `C[C@@H](C(=O)O)[C@H](C)n1c(=O)[nH]/c(=N\c2ccc3c(c2)CCC3=O)n(Cc2ccc(Cl)cc2)c1=O` [Compound I-1830], the IC50 was determined as 869 nM.

Still in this experiment, the particulars now being: human P2X3 receptor, Test Example 1.
With `Cc1ccc(Cn2c(=O)n(C)c(=O)[nH]/c2=N\c2ccc(Oc3ccc(C#N)cn3)cc2)cc1` [Compound I-2393], the IC50 came out at 10 nM.

As for `O=C(Cn1c(=O)[nH]/c(=N\c2ccc(Oc3nccs3)cc2)n(Cc2ccc(Cl)cc2)c1=O)NCCO` [Compound I-2646], the concentration for half-maximal inhibition (IC50) stood at 8 nM. For `CNC(=O)Cn1c(=O)[nH]/c(=N\c2ccc(Oc3ncns3)cc2)n(Cc2ccc(Cl)cc2)c1=O` [Compound I-2673], the IC50 amounted to 7 nM. For the compound `Cn1c(=O)[nH]/c(=N\c2ccc(Oc3cccc(/C=C/C(=O)O)c3)cc2)n(Cc2ccc(Cl)cc2)c1=O` [Compound I-2364], the concentration for half-maximal inhibition (IC50) amounted to 8 nM.

For `CCn1c(=O)[nH]/c(=N\c2ccc(Oc3ccc(C#N)nn3)cc2)n(Cc2ccc(Cl)cc2)c1=O` [Compound I-2601], the half-maximal inhibitory concentration (IC50) amounted to 12 nM.

As to `O=C(Cn1c(=O)[nH]/c(=N\c2ccc(Oc3cccc(F)n3)cc2)n(Cc2ccc(Cl)cc2)c1=O)NCCO` [Compound I-2679], the 50% inhibitory concentration (IC50) stood at 5 nM. Same read-out and setting: to `CCn1c(=O)[nH]/c(=N\c2ccc(Oc3ccc(C(N)=O)nc3)cc2)n(Cc2ccc(Cl)cn2)c1=O` [Compound I-2279] belongs 33 nM; to `COc1ccc(CNc2nc(=O)n(Cc3ccc(Cl)cc3)/c(=N/c3ccc(OC(C)C)cc3)[nH]2)c(OC)c1` [Compound I-2252], 769 nM. For `Cc1ccc(Cn2c(=O)n(C[C@H](C)C(=O)O)c(=O)[nH]/c2=N\c2ccc(CC(C)(C)O)c(Cl)c2)cc1` [Compound I-1532], the concentration for half-maximal inhibition (IC50) stood at 25 nM. As to `COCCn1c(=O)[nH]/c(=N\c2ccc(Oc3ccnc(C(=O)O)c3)cc2)n(Cc2ccc(Cl)cc2)c1=O` [Compound I-2552], the 50% inhibitory concentration (IC50) came to 5 nM. Same read-out and setting: to `CCn1c(=O)[nH]/c(=N\c2ccc(Oc3cccc(/C=C/C(=O)OC)c3)cc2)n(Cc2ccc(Cl)cc2)c1=O` [Compound I-2224] belongs 33 nM. Same read-out and setting: to `Cn1c(=O)[nH]/c(=N\c2ccc(Oc3ccnc(C(=O)O)c3)c(F)c2)n(Cc2ccc(Cl)cc2)c1=O` [Compound I-2461] belongs 7 nM; to `O=C(O)c1cncc(Oc2ccc(/N=c3\[nH]c(=O)n(C4CCC4)c(=O)n3Cc3ccc(Cl)cc3)cc2)c1` [Compound I-2485], 8 nM.
